Results taken from publication PMC11470957, “Principles of paralog-specific targeted protein degradation engaging the C-degron E3 KLHDC2” (Nature Communications, 2024).
“And” between values parts separate entries of the source, which are not always exact repeats. Equal entries are not always repeated.

Assays:
[1] = system: SKBR3, AU565, RD, SKES1, A673 cells; assay: Cell Titer-Glo Luminescent Cell Viability assay; conditions: 24 h, read-out: IC50, cell viability
R56A KLHDC2^SBD = target: T1, R56A KLHDC2^SBD (Homo sapiens, UniProt Q9Y2U9, R56A); assay: ITC, binary binding to R56A KLHDC2^SBD
T1 sequence (Q9Y2U9 15-361 R56A): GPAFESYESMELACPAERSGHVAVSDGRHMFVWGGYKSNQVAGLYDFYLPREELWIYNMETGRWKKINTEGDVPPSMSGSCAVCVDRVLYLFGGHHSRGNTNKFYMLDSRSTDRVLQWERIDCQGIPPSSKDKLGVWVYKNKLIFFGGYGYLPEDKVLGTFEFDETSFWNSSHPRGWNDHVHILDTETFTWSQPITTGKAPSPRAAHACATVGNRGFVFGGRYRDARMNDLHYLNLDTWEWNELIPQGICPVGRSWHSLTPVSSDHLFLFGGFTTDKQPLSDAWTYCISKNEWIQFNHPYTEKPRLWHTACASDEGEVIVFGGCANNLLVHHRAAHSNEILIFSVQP

neddylated CRL2^KLHDC2 = neddylated CRL2^KLHDC2 (Homo sapiens, UniProt Q9Y2U9, G405K/S406K); assay: biochemical
[2] = target: KLHDC2^SBD / E344G BRD3^BD2 (Homo sapiens, UniProt Q15059+Q9Y2U9, E344G); assay: ITC, ternary complex KLHDC2^SBD with PROTAC-E344G BRD3^BD2
KLHDC2^SBD / E344G BRD3^BD2, sequence (Q9Y2U9 15-361): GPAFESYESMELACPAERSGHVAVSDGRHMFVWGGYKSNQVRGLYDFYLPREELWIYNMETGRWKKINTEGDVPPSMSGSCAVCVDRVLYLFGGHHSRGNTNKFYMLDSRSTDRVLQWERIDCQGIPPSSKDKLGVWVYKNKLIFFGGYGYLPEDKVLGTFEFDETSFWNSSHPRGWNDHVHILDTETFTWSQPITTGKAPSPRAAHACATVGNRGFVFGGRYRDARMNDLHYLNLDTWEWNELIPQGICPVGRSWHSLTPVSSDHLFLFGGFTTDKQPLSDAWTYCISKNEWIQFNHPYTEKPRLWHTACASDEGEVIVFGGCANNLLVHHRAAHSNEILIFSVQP
KLHDC2^SBD / E344G BRD3^BD2, sequence (Q15059 306-416 E344G): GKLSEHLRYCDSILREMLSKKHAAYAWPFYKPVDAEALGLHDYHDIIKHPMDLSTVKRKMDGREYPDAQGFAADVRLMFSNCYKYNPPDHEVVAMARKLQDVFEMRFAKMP

[3] = target: neddylated CRL2^KLHDC2 (tetrameric KLHDC2-EloB/C) (Homo sapiens, UniProt Q15059+Q9Y2U9); assay: Ubiquitylation assay monitoring disruption of the KLHDC2-EloBC tetrameric assembly
[4] = target: R56A KLHDC2^SBD / G386E BRD4^BD2 (Homo sapiens, UniProt O60885+Q9Y2U9, G386E/R56A); assay: ITC, ternary complex R56A KLHDC2^SBD with PROTAC-G386E BRD4^BD2
BRD3^BD2 = BRD3^BD2 (Homo sapiens, UniProt Q15059); assay: ITC, binary binding to BRD3^BD2
BRD3^BD2, sequence (Q15059 306-416): as the sequence (Q15059 306-416 E344G) above, with G39E counted along it

[5] = target: KLHDC2^SBD / G382E BRD2^BD2 (Homo sapiens, UniProt P25440+Q9Y2U9, G382E); assay: ITC, ternary complex KLHDC2^SBD with PROTAC-G382E BRD2^BD2
KLHDC2^SBD / G382E BRD2^BD2, sequence (Q9Y2U9 15-361): as the sequence (Q9Y2U9 15-361) above
KLHDC2^SBD / G382E BRD2^BD2, sequence (P25440 344-455 G382E): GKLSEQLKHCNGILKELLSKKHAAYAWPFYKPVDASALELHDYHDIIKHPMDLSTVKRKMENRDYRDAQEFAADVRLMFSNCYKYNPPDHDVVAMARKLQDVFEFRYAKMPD

[6] = target: R56A KLHDC2^SBD / BRD3^BD2 (Homo sapiens, UniProt Q15059+Q9Y2U9, R56A); assay: ITC, ternary complex R56A KLHDC2^SBD with PROTAC-BRD3^BD2
R56A KLHDC2^SBD / BRD3^BD2, sequence (Q15059 306-416, one chain of several): as the sequence (Q15059 306-416 E344G) above, with G39E counted along it

[7] = target: K291A KLHDC2^SBD / BRD3^BD2 (Homo sapiens, UniProt Q15059+Q9Y2U9, K291A); assay: ITC, ternary complex K291A KLHDC2^SBD with PROTAC-BRD3^BD2
K291A KLHDC2^SBD / BRD3^BD2, sequence (Q9Y2U9 15-361 K291A): as the sequence (Q9Y2U9 15-361) above, with K277A counted along it
K291A KLHDC2^SBD / BRD3^BD2, sequence (Q15059 306-416): as the sequence (Q15059 306-416 E344G) above, with G39E counted along it

[8] = target: KLHDC2^SBD / G386E BRD4^BD2 (Homo sapiens, UniProt O60885+Q9Y2U9, G386E); assay: ITC, ternary complex KLHDC2^SBD with PROTAC-G386E BRD4^BD2
KLHDC2^SBD / G386E BRD4^BD2, sequence (Q9Y2U9 15-361, other chains not shown): as the sequence (Q9Y2U9 15-361) above

KLHDC2^SBD / BRD4^BD2 = KLHDC2^SBD / BRD4^BD2 (Homo sapiens, UniProt O60885+Q9Y2U9); assay: ITC, ternary complex KLHDC2^SBD with PROTAC-BRD4^BD2
KLHDC2^SBD / BRD4^BD2, sequence (Q9Y2U9 15-361, other chains not shown): as the sequence (Q9Y2U9 15-361) above

[9] = cell: SJ46421, syringe: R56A KLHDC2^SBD
[10] = cell: SJ46421-E344G BRD3^BD2, syringe: KLHDC2^SBD
[11] = cell: SJ46421-G386E BRD4^BD2, syringe: R56A KLHDC2^SBD
[12] = cell: SJ46421, syringe: BRD3^BD2
[13] = cell: SJ46421-G382E BRD2^BD2, syringe: KLHDC2^SBD
[14] = cell: SJ46421-BRD3^BD2, syringe: R56A KLHDC2^SBD
[15] = ITC source data Fig4f, N=1, syringe K291A KLHDC2, cell SJ46421-BRD3BD2
[16] = ITC, syringe K291A KLHDC2, cell compound-BRD3BD2, N=1
[17] = cell: SJ46421-BRD3^BD2, syringe: K291A KLHDC2^SBD, n=1
[18] = cell: SJ46421-G386E BRD4^BD2, syringe: KLHDC2^SBD
[19] = cell: PROTAC-BRD4^BD2, syringe: KLHDC2^SBD

**Q.** `COC(=O)CNC(=O)Cc1csc(-c2ccc3cccc(OCCN4CCN(C(=O)C[C@@H]5N=C(c6ccc(Cl)cc6)c6c(sc(C)c6C)-n6c(C)nnc65)CC4)c3c2)n1` [SJ46420] was tested. Which IC50 [1] did it give?
**A.** ~300 nM

**Q.** For `Cc1sc2c(c1C)C(c1ccc(Cl)cc1)=N[C@@H](CC(=O)N1CCN(CCOc3cccc4ccc(-c5nc(CC(=O)NCC(=O)O)cs5)cc34)CC1)c1nnc(C)n1-2` [SJ46421], which Kd (R56A KLHDC2^SBD; ITC Kd, cell: SJ46421, syringe: R56A KLHDC2^SBD) is on record?
**A.** 463 ± 15 nM

**Q.** What about the Kd (R56A KLHDC2^SBD; Kd, Rep1/Rep2, ITC source data Fig4f, syringe R56A KLHDC2, cell SJ46421) of the same molecule?
**A.** 462 nM and 464 nM

**Q.** What about the “ITC -TΔS” value (R56A KLHDC2^SBD; [9]) of the same molecule?
**A.** -6.66 +/- 0.25 kcal/mol-1

**Q.** And the “ITC N” value (R56A KLHDC2^SBD; [9])?
**A.** 1.0

**Q.** And the “ITC ΔG” value (R56A KLHDC2^SBD; [9])?
**A.** -8.85 +/- 0.05 kcal/mol-1

**Q.** What about the “ITC ΔH” value (R56A KLHDC2^SBD; [9]) of the same molecule?
**A.** -1.82 +/- 0.05 kcal/mol-1

**Q.** What about the IC50 (neddylated CRL2^KLHDC2) of the same molecule?
**A.** 2600 nM

**Q.** And the “cooperativity α” value ([2]; E344G BRD3^BD2, KLHDC2^SBD)?
**A.** 1.7

**Q.** And the Kd ([2]; Kd, Rep1/Rep2, ITC source data Fig4f, syringe KLHDC2, cell SJ46421-E344GBRD3BD2)?
**A.** 187 nM and 175 nM

**Q.** What about the “ITC -TΔS (ternary)” value [2, 10] of the same molecule?
**A.** -2.23 +/- 0.12 kcal/mol-1

**Q.** And the “ITC N (ternary)” value [2, 10]?
**A.** 1.0

**Q.** And the “ITC ΔG (ternary)” value [2, 10]?
**A.** -9.42 +/- 0.08 kcal/mol-1

**Q.** What about the “ITC ΔH (ternary)” value [2, 10] of the same molecule?
**A.** -7.19 +/- 0.05 kcal/mol-1

**Q.** And the “KLHDC2~UB level, Rep1/Rep2” value ([3]; Monomer, + BRD3-SJ46421, pre-incubation 0)?
**A.** 0.5851 and 0.3857

**Q.** And the “KLHDC2~UB level, Rep1/Rep2” value ([3]; Tetramer, + BRD3-SJ46421, pre-incubation 0)?
**A.** 67.2962 and 61.2938

**Q.** And the “KLHDC2~UB level, Rep1/Rep2” value ([3]; Tetramer, + BRD3-SJ46421, pre-incubation 2)?
**A.** 32.2274 and 23.9384

**Q.** And the “KLHDC2~UB level, Rep1/Rep2” value ([3]; Tetramer, + BRD3-SJ46421, pre-incubation 5)?
**A.** 1.6168 and 2.133

**Q.** What about the “cooperativity α” value ([4]; G386E BRD4^BD2, R56A KLHDC2^SBD) of the same molecule?
**A.** 1.4

**Q.** And the Kd ([4]; Kd, Rep1/Rep2, ITC source data Fig4f, syringe R56A KLHDC2, cell SJ46421-G386EBRD4BD2)?
**A.** 333 nM and 325 nM

**Q.** What about the “ITC -TΔS (ternary)” value [4, 11] of the same molecule?
**A.** -4.42 +/- 0.19 kcal/mol-1

**Q.** And the “ITC N (ternary)” value [4, 11]?
**A.** 1.1

**Q.** And the “ITC ΔG (ternary)” value [4, 11]?
**A.** -9.05 +/- 0.01 kcal/mol-1

**Q.** What about the “ITC ΔH (ternary)” value [4, 11] of the same molecule?
**A.** -4.69 +/- 0.15 kcal/mol-1

**Q.** And the Kd (BRD3^BD2; ITC Kd, cell: SJ46421, syringe: BRD3^BD2)?
**A.** 1000 ± 194 nM

**Q.** And the “(-)TDS” value (BRD3^BD2; ITC, syringe BRD3BD2, cell compound, Rep1, Rep2)?
**A.** 5.34 and 5

**Q.** And the Kd (BRD3^BD2; Kd, Rep1/Rep2, ITC source data Fig4a, syringe BRD3BD2, cell SJ46421)?
**A.** 1070 nM and 908 nM

**Q.** And the “ITC -TΔS” value (BRD3^BD2; [12])?
**A.** 5.11 +/- 0.24 kcal/mol-1

**Q.** And the “ITC N” value (BRD3^BD2; [12])?
**A.** 0.9

**Q.** What about the “ITC ΔH” value (BRD3^BD2; [12]) of the same molecule?
**A.** -13.5 +/- 0.53 kcal/mol-1

**Q.** What about the “cooperativity α” value ([5]; G382E BRD2^BD2, KLHDC2^SBD) of the same molecule?
**A.** 3.2

**Q.** What about the “(-)TDS” value ([5]; ITC, syringe KLHDC2, cell compound-G382EBRD2BD2, Rep1, Rep2) of the same molecule?
**A.** 0.62 and 0.68

**Q.** And the Kd ([5]; Kd, Rep1/Rep2, ITC source data Fig4f, syringe KLHDC2, cell SJ46421-G382EBRD2BD2)?
**A.** 103 nM and 88.1 nM

**Q.** What about the “ITC -TΔS (ternary)” value [5, 13] of the same molecule?
**A.** 0.65 +/- 0.07 kcal/mol-1

**Q.** What about the “ITC N (ternary)” value [5, 13] of the same molecule?
**A.** 0.9

**Q.** What about the “ITC ΔG (ternary)” value [5, 13] of the same molecule?
**A.** -9.80 +/- 0.02 kcal/mol-1

**Q.** What about the “ITC ΔH (ternary)” value [5, 13] of the same molecule?
**A.** -10.5 +/- 0.11 kcal/mol-1

**Q.** What about the “cooperativity α” value ([6]; BRD3^BD2, R56A KLHDC2^SBD) of the same molecule?
**A.** 1.7

**Q.** What about the Kd ([6]; Kd, Rep1/Rep2, ITC source data Fig4f, syringe R56A KLHDC2, cell SJ46421-BRD3BD2) of the same molecule?
**A.** 291 nM and 255 nM

**Q.** What about the “ITC -TΔS (ternary)” value [6, 14] of the same molecule?
**A.** -5.02 +/- 0.31 kcal/mol-1

**Q.** And the “ITC N (ternary)” value [6, 14]?
**A.** 1.1

**Q.** And the “ITC ΔG (ternary)” value [6, 14]?
**A.** -9.19 +/- 0.03 kcal/mol-1

**Q.** And the “ITC ΔH (ternary)” value [6, 14]?
**A.** -3.68 +/- 0.03 kcal/mol-1

**Q.** What about the Kd [7] of the same molecule?
**A.** 25.6 nM

**Q.** And the “(-)TDS, Rep1” value [7, 15]?
**A.** -5.73

**Q.** And the “DG, Rep1” value [7, 15]?
**A.** -10.6

**Q.** And the “DH, Rep1” value [7, 15]?
**A.** -4.87

**Q.** And the “(-)TDS” value [7, 16]?
**A.** -5.73

**Q.** What about the DG [7, 16] of the same molecule?
**A.** -10.6

**Q.** And the DH [7, 16]?
**A.** -4.87

**Q.** What about the “cooperativity α” value ([7]; K291A KLHDC2^SBD, estimated from the binding affinity of SJ46421 to WT KLHDC2) of the same molecule?
**A.** 11.9

**Q.** What about the “ITC -TΔS (ternary)” value [7, 17] of the same molecule?
**A.** -5.73 kcal/mol-1

**Q.** And the “ITC N (ternary)” value [7, 17]?
**A.** 0.9

**Q.** And the “ITC ΔG (ternary)” value [7, 17]?
**A.** -10.6 kcal/mol-1

**Q.** And the “ITC ΔH (ternary)” value [7, 17]?
**A.** -4.87 kcal/mol-1

**Q.** What about the “cooperativity α” value ([8]; G386E BRD4^BD2, KLHDC2^SBD) of the same molecule?
**A.** 13 and 12.7

**Q.** And the Kd ([8]; Kd, Rep1/Rep2, ITC source data Fig4f, syringe KLHDC2, cell SJ46421-G386EBRD4BD2)?
**A.** 23.4 nM and 25.9 nM

**Q.** And the “ITC -TΔS (ternary)” value [8, 18]?
**A.** -1.30 +/- 0.11 kcal/mol-1

**Q.** And the “ITC N (ternary)” value [8, 18]?
**A.** 0.9

**Q.** What about the “ITC ΔG (ternary)” value [8, 18] of the same molecule?
**A.** -10.6 +/- 0.04 kcal/mol-1

**Q.** And the “ITC ΔH (ternary)” value [8, 18]?
**A.** -9.05 +/- 0.37 kcal/mol-1

**Q.** And the “cooperativity α” value (KLHDC2^SBD / BRD4^BD2; BRD4^BD2, KLHDC2^SBD)?
**A.** 2.8

**Q.** And the “ITC -TΔS (ternary)” value (KLHDC2^SBD / BRD4^BD2; [19])?
**A.** -1.51 +/- 0.11 kcal/mol-1

**Q.** And the “ITC N (ternary)” value (KLHDC2^SBD / BRD4^BD2; [19])?
**A.** 0.8

**Q.** And the “ITC ΔG (ternary)” value (KLHDC2^SBD / BRD4^BD2; [19])?
**A.** -9.72 +/- 0.04 kcal/mol-1

**Q.** And the “ITC ΔH (ternary)” value (KLHDC2^SBD / BRD4^BD2; [19])?
**A.** -8.22 +/- 0.09 kcal/mol-1
